In ChEMBL document CHEMBL1201862, “PubChem BioAssay data set” (2004):
The source made the active and inactive calls.

Assays:
[1] = molecular target: G-protein coupled receptor 55 (Homo sapiens, UniProt Q9Y2T6); experiment: inhibition of LPI-stimulated GPR55 beta-arrestin translocation – imaging, U2OS, beta-arrestin-GFP, LPI agonist, primary screen (AID 2013); type: functional;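 also: antagonist potency measured as reduced agonist-driven arrestin aggregation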
[2] = molecular target: T1, Voltage-gated N-type calcium channel alpha-1B subunit/Amyloid beta A4 precursor protein-binding family A member 1 (Homo sapiens, UniProt Q00975+Q02410); type: protein assay
[3] = molecular target: T1, Voltage-gated N-type calcium channel alpha-1B subunit/Amyloid beta A4 precursor protein-binding family A member 1; type: protein assay; remark: listed apart in the source
[4] = molecular target: T2, Alkaline phosphatase, tissue-nonspecific isozyme (Homo sapiens, UniProt P05186); experiment: potency against alkaline phosphatase TNAP – biochemical, luminescent, dose response, SAR follow-up (AID 1056)
T2 sequence (P05186 whole entry): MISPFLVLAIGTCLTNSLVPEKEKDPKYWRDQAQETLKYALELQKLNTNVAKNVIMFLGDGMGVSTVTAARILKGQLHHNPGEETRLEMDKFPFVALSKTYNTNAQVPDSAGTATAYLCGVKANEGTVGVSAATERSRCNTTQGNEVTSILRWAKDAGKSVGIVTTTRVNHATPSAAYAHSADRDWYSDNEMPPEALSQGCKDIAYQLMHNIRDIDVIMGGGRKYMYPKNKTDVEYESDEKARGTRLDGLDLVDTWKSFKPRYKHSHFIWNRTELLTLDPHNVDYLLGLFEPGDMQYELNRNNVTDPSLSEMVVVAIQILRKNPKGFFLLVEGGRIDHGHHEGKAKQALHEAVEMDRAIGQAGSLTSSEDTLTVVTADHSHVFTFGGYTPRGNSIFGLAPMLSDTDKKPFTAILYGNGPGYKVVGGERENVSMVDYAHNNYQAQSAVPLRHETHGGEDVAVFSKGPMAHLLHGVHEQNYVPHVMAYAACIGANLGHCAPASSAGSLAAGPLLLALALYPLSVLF

[5] = molecular target: Alkaline phosphatase, placental type (Homo sapiens, UniProt P05187); experiment: human placental alkaline phosphatase inhibition – biochemical, luminescence, confirmation (AID 1512); type: functional
[6] = test system: Streptococcus; experiment: GAS UMAA2166 growth inhibition – luminescence, BacTiterGlo, counter-screen for streptokinase expression inhibitor project, dose response (AID 1915); type: functional, organism-based;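 also: potency for reduction of bacterial viability or growth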
[7] = Trypanosoma cruzi growth suppression in host cells – NIH3T3 host cells, beta-gal luminescence, confirmation (AID 2044); type: functional, cell-based;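 also: intracellular parasites grown in NIH/3T3 mouse fibroblasts as host cells; luminescent beta-galactosidase reporter signal from transgenic T. cruzi replicating inside host cells; inhibitors lower the luminescence signal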
[8] = NIH3T3 cell viability loss – ATP luminescence, mouse fibroblasts, counter-screen, dose response (AID 2010); type: functional, cell-based;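 also: cells exposed to compound for about 90 hours before reading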
[9] = molecular target: Beta-galactosidase (Escherichia coli, UniProt Q8VNN2); experiment: detection-enzyme interference by beta-gal modulators – biochemical, E. coli enzyme, set 3, artefact control for CCR6 antagonist project, dose response (AID 504712); type: functional
[10] = test system: H9c2; experiment: cells; type: functional, cell-based; conditions: Rattus norvegicus, H9c2, Myocardium;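 also: confirmatory concentration-response retest of ultra-high-throughput screening hits for modulation of myocardial damage; cell death induced by hydrogen peroxide oxidative stress; compound pretreatment for 60 min then peroxide exposure for 2 h; potency is for protecting the cells against peroxide damage rather than for killing them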
[11] = test system: Streptococcus sp. 'group A'; experiment: Streptococcus pyogenes SK(-)GAS viability under kanamycin – luminescence, BacTiterGlo, confirmation, counter-screen for streptokinase expression inhibitor project, dose response (AID 1900); type: functional, organism-based
[12] = molecular target: Trypsin (Sus scrofa, UniProt P00761); experiment: trypsin protease activity blockade – biochemical, quenched peptide fluorescence, cherry-pick, selectivity assay for Rce1 protease inhibitor project, dose response (AID 488789)
[13] = molecular target: CAAX prenyl protease 2 (Saccharomyces cerevisiae S288c, UniProt Q03530); type: biochemical
[14] = Luminescence Cell-Based Dose Response HTS to Identify Activators of Luciferase Translation or Activity in H4-C Neuroglioblastoma Cells. [Related pubchem assays: 1829 (Project Summary), 1814 (Primary HTS)]; type: functional
[15] = Luminescence Cell-Based Dose HTS Response to Identify Inhibitors of 5'UTR Stem-Loop Driven Prion Protein mRNA Translation in H4-C Neuroglioblastoma Cells. [Related pubchem assays (depositor defined):AID1814, AID1827]; type: functional
[16] = Luminescence Cell-Based Dose Response HTS to Identify Inhibitors of Luciferase Translation or Activity in H4-C Neuroglioblastoma Cells. [Related pubchem assays: 1813 (Primary HTS), 1827 (Project Summary)]; type: functional
[17] = Luminescence Cell-Based Dose Confirmation HTS to Identify Inhibitors of 5'UTR Stem-Loop Driven Alpha-Synuclein mRNA Translation in H4 Neuroglioblastoma Cells. [Related pubchem assays: 1827 (Project Summary), 1813 (Primary HTS)]; type: functional
[18] = Luminescence Cell-Based Dose Response HTS to Identify Activators of 5'UTR Stem-Loop Driven Prion Protein mRNA Translation in H4-C Neuroglioblastoma Cells. [Related pubchem assays: 1829 (Project Summary), 1814 (Primary HTS)]; type: functional
[19] = molecular target: T3, E3 ubiquitin-protein ligase XIAP (Homo sapiens, UniProt P98170); experiment: small molecules displacing peptide from XIAP – biochemical, IAP family, fluorescence polarization (AID 1018); type: functional
[20] = molecular target: T3, E3 ubiquitin-protein ligase XIAP; experiment: Counter Screen using XIAP-Bir3 for Chemical Antagonists of Bir1/2 domains of IAP-family anti-apoptotic proteins. [Related pubchem assays (depositor defined):AID1018, AID1449, AID1514, AID1638, AID1749, AID1750, AID488957, AID488963]

T3 sequence (P98170 whole entry): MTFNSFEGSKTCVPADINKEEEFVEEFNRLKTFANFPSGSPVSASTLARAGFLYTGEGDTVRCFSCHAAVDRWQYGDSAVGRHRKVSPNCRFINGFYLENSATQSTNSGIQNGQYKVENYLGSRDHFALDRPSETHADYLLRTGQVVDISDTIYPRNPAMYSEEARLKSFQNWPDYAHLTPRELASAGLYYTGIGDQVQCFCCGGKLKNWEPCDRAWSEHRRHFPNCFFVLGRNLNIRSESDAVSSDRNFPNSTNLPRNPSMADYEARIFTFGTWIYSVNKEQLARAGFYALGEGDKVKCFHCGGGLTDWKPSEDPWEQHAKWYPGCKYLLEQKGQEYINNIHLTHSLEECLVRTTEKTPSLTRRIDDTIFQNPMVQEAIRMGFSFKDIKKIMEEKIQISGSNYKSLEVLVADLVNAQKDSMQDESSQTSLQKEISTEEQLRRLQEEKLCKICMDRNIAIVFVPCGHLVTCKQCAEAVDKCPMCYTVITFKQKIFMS
T1 sequence (Q00975 whole entry): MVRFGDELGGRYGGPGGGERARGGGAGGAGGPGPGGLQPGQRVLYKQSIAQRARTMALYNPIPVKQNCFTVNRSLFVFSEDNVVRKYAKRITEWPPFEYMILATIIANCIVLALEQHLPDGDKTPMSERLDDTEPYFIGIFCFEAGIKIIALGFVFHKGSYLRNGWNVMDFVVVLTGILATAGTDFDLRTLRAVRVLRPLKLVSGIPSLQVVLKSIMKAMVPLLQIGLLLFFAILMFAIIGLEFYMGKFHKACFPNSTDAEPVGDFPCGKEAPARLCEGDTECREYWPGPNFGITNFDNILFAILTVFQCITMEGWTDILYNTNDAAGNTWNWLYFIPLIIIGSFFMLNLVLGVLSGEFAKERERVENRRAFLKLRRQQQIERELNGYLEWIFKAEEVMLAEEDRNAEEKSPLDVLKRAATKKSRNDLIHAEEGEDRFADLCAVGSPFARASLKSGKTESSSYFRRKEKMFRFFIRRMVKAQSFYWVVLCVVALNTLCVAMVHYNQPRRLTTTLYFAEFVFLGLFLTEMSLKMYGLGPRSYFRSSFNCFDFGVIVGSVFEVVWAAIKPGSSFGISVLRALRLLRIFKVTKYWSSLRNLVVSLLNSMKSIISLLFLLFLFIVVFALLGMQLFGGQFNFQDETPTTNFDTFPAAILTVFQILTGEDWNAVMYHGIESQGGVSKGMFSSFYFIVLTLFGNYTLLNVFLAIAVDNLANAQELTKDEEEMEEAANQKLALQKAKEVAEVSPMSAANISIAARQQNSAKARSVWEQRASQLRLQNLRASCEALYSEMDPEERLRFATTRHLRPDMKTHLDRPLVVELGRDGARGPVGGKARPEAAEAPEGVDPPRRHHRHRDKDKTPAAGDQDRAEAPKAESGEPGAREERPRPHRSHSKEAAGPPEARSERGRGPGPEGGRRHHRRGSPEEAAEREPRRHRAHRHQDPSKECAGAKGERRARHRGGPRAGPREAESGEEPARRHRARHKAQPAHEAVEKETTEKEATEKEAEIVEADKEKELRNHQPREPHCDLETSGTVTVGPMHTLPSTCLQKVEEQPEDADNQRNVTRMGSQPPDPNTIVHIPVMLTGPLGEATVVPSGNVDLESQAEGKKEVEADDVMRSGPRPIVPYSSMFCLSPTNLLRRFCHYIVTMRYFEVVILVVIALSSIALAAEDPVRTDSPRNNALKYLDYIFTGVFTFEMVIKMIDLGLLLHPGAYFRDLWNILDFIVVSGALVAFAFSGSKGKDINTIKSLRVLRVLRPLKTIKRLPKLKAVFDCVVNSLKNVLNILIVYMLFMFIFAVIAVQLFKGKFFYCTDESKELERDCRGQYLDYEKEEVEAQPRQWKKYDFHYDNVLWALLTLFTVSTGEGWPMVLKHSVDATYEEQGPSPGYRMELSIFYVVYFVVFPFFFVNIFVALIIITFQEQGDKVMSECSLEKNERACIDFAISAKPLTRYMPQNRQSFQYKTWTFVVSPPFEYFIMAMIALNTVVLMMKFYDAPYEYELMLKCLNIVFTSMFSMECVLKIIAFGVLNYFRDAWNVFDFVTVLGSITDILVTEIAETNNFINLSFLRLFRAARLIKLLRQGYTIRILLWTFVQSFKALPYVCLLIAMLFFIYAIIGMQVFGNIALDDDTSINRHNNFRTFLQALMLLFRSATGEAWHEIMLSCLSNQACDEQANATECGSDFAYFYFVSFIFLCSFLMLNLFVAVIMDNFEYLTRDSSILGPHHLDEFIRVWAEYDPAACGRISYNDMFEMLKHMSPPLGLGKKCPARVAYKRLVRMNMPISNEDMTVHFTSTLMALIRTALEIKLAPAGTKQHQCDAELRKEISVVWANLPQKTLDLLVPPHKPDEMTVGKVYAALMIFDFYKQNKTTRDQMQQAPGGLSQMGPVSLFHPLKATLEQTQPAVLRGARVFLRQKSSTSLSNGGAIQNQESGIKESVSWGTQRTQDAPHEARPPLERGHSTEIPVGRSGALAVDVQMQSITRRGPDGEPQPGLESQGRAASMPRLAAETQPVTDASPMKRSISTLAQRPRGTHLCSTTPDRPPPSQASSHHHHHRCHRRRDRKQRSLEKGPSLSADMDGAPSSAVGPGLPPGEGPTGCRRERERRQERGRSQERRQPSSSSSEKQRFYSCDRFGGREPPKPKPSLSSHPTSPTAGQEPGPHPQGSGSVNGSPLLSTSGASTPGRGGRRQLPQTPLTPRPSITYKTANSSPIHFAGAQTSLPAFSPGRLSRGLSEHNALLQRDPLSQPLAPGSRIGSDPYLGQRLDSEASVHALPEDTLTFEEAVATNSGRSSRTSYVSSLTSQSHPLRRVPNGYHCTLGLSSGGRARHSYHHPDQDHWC
T1 sequence (Q02410 whole entry): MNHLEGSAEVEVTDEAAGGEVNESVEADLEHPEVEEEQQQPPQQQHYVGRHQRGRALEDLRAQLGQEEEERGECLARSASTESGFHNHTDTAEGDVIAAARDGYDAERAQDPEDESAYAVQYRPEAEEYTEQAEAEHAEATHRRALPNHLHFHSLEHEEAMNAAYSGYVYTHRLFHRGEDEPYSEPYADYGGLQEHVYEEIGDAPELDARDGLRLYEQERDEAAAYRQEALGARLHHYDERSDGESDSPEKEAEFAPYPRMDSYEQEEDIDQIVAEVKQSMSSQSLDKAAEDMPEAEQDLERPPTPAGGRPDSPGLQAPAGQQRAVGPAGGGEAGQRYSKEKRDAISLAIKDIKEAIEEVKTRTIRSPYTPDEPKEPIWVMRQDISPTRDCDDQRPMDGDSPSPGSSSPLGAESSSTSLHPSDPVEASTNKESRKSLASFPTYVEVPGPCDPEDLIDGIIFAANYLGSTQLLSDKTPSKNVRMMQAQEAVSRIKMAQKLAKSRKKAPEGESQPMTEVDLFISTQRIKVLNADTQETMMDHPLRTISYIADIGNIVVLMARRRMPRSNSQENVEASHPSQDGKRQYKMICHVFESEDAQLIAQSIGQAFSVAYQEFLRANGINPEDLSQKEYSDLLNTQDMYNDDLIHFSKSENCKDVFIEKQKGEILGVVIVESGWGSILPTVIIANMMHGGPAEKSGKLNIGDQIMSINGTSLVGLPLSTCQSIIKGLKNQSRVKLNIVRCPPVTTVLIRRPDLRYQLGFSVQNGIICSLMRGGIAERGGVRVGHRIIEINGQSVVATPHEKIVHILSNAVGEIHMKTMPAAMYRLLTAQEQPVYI
Chain of Beta-galactosidase (Q8VNN2 whole entry): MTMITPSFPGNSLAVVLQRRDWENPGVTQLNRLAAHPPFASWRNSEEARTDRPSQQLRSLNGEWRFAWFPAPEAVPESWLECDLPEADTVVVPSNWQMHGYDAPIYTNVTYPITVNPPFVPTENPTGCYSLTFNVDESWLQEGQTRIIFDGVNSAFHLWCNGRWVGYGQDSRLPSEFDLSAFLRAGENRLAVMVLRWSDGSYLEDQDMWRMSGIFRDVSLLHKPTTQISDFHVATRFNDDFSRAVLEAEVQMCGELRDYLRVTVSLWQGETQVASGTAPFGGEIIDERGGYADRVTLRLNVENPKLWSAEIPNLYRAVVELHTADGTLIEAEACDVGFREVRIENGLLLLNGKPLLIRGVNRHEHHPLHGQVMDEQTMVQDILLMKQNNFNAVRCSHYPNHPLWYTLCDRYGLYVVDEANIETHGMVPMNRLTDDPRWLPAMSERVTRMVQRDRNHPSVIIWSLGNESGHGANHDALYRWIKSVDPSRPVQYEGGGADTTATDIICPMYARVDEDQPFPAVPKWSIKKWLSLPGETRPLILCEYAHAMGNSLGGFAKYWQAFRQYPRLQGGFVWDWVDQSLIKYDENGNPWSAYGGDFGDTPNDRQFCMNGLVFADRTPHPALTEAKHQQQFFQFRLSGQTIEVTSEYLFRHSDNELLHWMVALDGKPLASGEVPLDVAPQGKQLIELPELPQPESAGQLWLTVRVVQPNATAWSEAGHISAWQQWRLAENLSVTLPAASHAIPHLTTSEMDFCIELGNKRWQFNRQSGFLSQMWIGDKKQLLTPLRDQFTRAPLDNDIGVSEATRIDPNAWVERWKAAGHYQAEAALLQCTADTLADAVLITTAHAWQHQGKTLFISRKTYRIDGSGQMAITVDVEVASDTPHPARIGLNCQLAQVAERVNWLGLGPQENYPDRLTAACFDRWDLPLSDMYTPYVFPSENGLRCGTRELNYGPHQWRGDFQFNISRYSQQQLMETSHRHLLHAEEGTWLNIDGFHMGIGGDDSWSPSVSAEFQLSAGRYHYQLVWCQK
Chain of CAAX prenyl protease 2 (Q03530 whole entry): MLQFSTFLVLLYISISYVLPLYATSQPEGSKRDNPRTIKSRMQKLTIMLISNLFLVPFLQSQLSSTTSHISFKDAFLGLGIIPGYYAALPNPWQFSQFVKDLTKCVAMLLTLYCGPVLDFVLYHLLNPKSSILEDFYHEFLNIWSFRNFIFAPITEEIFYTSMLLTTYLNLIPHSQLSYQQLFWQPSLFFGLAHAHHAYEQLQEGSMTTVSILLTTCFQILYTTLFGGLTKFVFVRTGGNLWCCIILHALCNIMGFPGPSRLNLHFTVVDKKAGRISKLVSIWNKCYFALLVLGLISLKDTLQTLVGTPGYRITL

With `CCOC(=O)c1cc(C#N)c(Oc2ccc(F)cc2)nc1-c1ccccc1` the IC50 [1] was 3.03 µM (active).

With `CC1=C(C(=O)O)N2C(=O)C(NC(=O)CCCC(=O)O)C2SC1` (stereo unspecified) the IC50 [2] was > 50 µM (inactive) and the IC50 [3] was > 56.8 µM (not active).

For `COc1ccc(-n2c(SCC(=O)c3ccc(O)c(O)c3)nnc2-c2ccc(C)cc2)cc1`, the IC50 [4] was > 100 µM (inactive) and the IC50 [5] was 5.84 µM (active).

For `Cc1cc(C)c(OCC(=O)Nc2nc(-c3ccccn3)cs2)c(C)c1`, the EC50 [6] was 5.71 µM (active), the EC50 [7] was 2.47 µM (active) and the EC50 [8] was 8.87 µM (active). For the same molecule, the IC50 [9] was > 66.6 µM (inactive), the IC50 [10] was 10 µM (active) and the EC50 [11] was 2.75 µM (active).

For `COc1ccc(C2CC(c3ccccc3)=NN2C(=O)c2ccc(Cl)c([N+](=O)[O-])c2)cc1` (stereo unspecified), the EC50 [8] was 32.6 µM (active), the AC50 [12] was 77.7 µM (active) and the AC50 [13] was 26.1 µM (active).

With `CC(=O)O[C@@]12CO[C@@H]1C[C@H](O)[C@@]1(C)C(=O)[C@H](O)C3=C(C)[C@@H](OC(=O)[C@H](O)[C@@H](NC(=O)c4ccccc4)c4ccccc4)C[C@](O)([C@@H](OC(=O)c4ccccc4)[C@H]21)C3(C)C` the EC50 [14] was 73.1 µM (inconclusive), the EC50 [15] was 2.4 µM (active) and the EC50 [16] was 692 nM (active). The EC50 [17] was 2.3 µM (active) and the EC50 [18] was 2.02 µM (inconclusive).

In the case of `CCOc1ccccc1NC(=O)C1=C(C)NC(=S)NC1c1cccs1` (stereo unspecified), the IC50 [19] was > 100 µM (not active) and the IC50 [20] was > 100 µM (inactive).
